# Results reported in ChEMBL document CHEMBL4706752 (ACS Med Chem Lett, 2021).
# Columns and labels:
# [1] = molecular target: T1, Nuclear receptor ROR-gamma (Homo sapiens, UniProt P51449); assay: Inverse agonist activity at RORgammat in human whole blood assessed as inhibition of anti-CD3/anti-CD28 monoclonal antibodies-stimulated IL-17A production measured by ELISA; assay type: tissue-based
# T1 sequence (P51449 whole entry): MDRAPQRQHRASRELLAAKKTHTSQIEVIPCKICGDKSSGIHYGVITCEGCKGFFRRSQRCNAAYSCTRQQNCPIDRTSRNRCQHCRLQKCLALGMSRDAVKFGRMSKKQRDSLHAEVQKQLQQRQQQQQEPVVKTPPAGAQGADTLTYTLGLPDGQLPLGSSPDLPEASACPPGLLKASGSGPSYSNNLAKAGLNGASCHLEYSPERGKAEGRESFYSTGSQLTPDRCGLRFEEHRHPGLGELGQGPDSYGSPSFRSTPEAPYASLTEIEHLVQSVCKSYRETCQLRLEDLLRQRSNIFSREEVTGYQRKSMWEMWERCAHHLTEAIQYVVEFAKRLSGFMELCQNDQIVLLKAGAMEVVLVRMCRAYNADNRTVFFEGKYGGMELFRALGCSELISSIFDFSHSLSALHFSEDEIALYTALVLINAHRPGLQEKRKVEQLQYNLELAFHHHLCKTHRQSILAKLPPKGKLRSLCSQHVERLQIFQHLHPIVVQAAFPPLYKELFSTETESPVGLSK
# [2] = Apparent permeability across apical to basolateral membrane in human Caco2 cells; assay type: ADME, cell-based; conditions: Caco-2
# Cytochrome P450 2C19 = Cytochrome P450 2C19 (Homo sapiens, UniProt P33261); assay: Inhibition of CYP2C19 (unknown origin); assay type: ADME
# Sequence of Cytochrome P450 2C19 (P33261 whole entry): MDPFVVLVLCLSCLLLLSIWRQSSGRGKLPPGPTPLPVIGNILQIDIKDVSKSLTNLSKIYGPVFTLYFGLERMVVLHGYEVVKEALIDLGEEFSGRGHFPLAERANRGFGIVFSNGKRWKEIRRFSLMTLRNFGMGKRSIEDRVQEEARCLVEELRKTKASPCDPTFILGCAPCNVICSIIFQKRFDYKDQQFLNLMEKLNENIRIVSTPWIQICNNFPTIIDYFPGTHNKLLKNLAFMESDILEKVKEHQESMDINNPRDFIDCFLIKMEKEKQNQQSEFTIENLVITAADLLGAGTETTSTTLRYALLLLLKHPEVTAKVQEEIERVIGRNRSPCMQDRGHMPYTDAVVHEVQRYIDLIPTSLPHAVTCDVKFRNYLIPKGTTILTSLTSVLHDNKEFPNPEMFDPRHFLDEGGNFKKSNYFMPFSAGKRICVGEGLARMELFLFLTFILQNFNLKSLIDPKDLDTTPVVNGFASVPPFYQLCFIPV
# [3] = Metabolic stability in mouse liver microsomes assessed as compound remaining after 10 mins; assay type: ADME, Microsome; conditions: read-out: Stabilty
# Cytochrome P450 3A4 = Cytochrome P450 3A4 (Homo sapiens, UniProt P08684); assay: Inhibition of CYP3A4 (unknown origin); assay type: ADME
# Sequence of Cytochrome P450 3A4 (P08684 whole entry, the tested form may be a part): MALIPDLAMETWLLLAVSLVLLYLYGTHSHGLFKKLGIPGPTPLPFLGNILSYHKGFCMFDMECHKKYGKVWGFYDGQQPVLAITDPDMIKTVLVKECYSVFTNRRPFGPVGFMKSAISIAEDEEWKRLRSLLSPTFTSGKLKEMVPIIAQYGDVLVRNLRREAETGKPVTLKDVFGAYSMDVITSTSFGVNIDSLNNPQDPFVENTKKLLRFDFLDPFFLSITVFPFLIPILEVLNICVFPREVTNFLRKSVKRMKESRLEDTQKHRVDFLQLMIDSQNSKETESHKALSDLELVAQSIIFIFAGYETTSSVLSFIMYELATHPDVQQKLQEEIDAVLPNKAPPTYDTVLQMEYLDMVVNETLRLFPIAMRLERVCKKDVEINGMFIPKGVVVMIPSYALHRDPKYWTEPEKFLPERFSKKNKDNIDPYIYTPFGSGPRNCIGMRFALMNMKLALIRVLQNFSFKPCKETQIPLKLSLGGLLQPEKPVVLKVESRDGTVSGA
# [4] = molecular target: T1, Nuclear receptor ROR-gamma; assay: Inverse agonist activity at human Gal4-fused RORgammat expressed in human Jurkat cells luciferase reporter gene assay; assay type: cell-based
# [5] = Protein binding in mouse serum assessed as fraction unbound; assay type: ADME, cell-free; conditions: read-out: PB
# Cytochrome P450 2C8 = molecular target: T2, Cytochrome P450 2C8 (Homo sapiens, UniProt P10632); assay: Inhibition of CYP2C8 (unknown origin); assay type: ADME
# T2 sequence (P10632 whole entry): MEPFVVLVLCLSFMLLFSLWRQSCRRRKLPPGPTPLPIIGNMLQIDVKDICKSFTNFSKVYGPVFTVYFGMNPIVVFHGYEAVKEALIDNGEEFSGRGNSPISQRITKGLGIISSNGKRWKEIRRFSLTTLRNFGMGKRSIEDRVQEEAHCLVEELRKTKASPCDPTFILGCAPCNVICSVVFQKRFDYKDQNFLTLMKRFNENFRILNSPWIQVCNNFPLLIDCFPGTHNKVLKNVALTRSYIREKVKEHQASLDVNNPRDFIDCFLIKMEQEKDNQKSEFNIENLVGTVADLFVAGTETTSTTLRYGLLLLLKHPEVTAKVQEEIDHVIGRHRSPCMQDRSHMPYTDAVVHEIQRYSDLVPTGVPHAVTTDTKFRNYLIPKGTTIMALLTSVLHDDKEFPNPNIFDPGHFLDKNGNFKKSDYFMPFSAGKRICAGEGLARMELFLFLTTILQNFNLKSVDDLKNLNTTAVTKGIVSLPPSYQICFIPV
# [6] = Efflux ratio of apparent permeability across basolateral to apical side over apical to basolateral side in Caco2 cells; assay type: ADME, cell-based; conditions: human, Caco-2
# Cytochrome P450 2C9 = Cytochrome P450 2C9 (Homo sapiens, UniProt P11712); assay: Inhibition of CYP2C9 (unknown origin); assay type: ADME
# Sequence of Cytochrome P450 2C9 (P11712 whole entry): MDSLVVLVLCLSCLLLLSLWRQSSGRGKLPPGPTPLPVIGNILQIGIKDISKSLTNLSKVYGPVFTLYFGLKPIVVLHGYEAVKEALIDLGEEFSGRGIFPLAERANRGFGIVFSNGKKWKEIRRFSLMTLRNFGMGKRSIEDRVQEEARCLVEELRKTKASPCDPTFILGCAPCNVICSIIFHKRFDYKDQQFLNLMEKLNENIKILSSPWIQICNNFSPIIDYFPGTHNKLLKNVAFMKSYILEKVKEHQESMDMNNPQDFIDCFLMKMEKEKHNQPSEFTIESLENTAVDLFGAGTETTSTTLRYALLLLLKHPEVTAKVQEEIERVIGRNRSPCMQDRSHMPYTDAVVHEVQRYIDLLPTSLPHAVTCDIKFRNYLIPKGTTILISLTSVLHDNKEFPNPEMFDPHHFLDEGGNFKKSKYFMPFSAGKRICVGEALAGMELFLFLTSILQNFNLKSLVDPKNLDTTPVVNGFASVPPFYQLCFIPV
# [7] = Metabolic stability in human liver microsomes assessed as compound remaining after 10 mins; assay type: ADME, Microsome; conditions: read-out: Stabilty
# [8] = Protein binding in human serum assessed as fraction unbound; assay type: ADME, cell-free; conditions: read-out: PB
EC50 [1] [µM],Papp A→B [2] [×10⁻⁶ cm/s],IC50 (Cytochrome P450 2C19) [µM],remaining at 10 min [3] [%],IC50 (Cytochrome P450 3A4) [µM],EC50 [4] [µM],fraction unbound [5],IC50 (Cytochrome P450 2C8) [µM],efflux ratio [6],IC50 (Cytochrome P450 2C9) [µM],remaining at 10 min [7] [%],fraction unbound [8],Structure (SMILES)
0.12,7.6,15,83,> 20,0.0055,0.002,13,0.9,9.2,89,–,C[C@](O)(CS(C)(=O)=O)C(=O)N[C@@H]1CC[C@@]2(S(=O)(=O)c3ccc(F)cc3)c3ccc(C(F)(C(F)(F)F)C(F)(F)F)cc3CC[C@@H]12
–,9.4,–,82,> 20,–,0.16,> 20,–,–,83,0.2,N#CCCN1C(=O)CC[C@H]1C(=O)N1CC[C@@]2(S(=O)(=O)c3ccc(F)cc3)c3ncc(C(F)(C(F)(F)F)C(F)(F)F)cc3CC[C@@H]12
0.031,19,–,83,19,0.024,0.051,> 20,1.7,–,100,0.071,N#CCCN1C(=O)CC[C@H]1C(=O)N1CC[C@@]2(S(=O)(=O)c3ccc(F)cc3)c3ccc(C(F)(C(F)(F)F)C(F)(F)F)nc3CC[C@@H]12
–,13,–,100,13,–,0.068,9.4,–,–,93,0.008,O=C(C1CCS(=O)(=O)CC1)N1CC[C@@]2(S(=O)(=O)c3ccc(F)cc3)c3ccc(C(F)(C(F)(F)F)C(F)(F)F)cc3CC[C@@H]12
0.101,12,16,87,9.1,0.006,0.018,6.3,0.5,8.5,100,–,CC(C)(O)CC(=O)N[C@@H]1CC[C@@]2(S(=O)(=O)c3ccc(F)cc3)c3ccc(C(F)(C(F)(F)F)C(F)(F)F)nc3CC[C@@H]12
–,–,–,100,–,–,–,–,–,–,97,–,C[C@](O)(CS(C)(=O)=O)C(=O)N[C@@H]1CC[C@@]2(S(=O)(=O)c3ccc(F)cc3)c3ccc(C(F)(C(F)(F)F)C(F)(F)F)nc3CC[C@@H]12
–,17,–,85,10,–,0.017,13,–,–,92,0.018,N#CCCN1C(=O)CC[C@H]1C(=O)N1CC[C@@]2(S(=O)(=O)c3ccc(F)cc3)c3ccc(C(F)(C(F)(F)F)C(F)(F)F)cc3CC[C@@H]12
0.05,7.3,> 20,95,5.8,0.0087,0.003,6.5,0.5,5.5,100,–,O=C(N[C@@H]1CC[C@@]2(S(=O)(=O)c3ccc(F)cc3)c3ccc(C(F)(C(F)(F)F)C(F)(F)F)cc3CC[C@@H]12)C1CCS(=O)(=O)CC1
–,23,–,91,> 20,–,0.05,16,–,–,100,–,O=C(C1CCS(=O)(=O)CC1)N1CC[C@@]2(S(=O)(=O)c3ccc(F)cc3)c3ccc(C(F)(C(F)(F)F)C(F)(F)F)nc3CC[C@@H]12
–,12,–,69,12,–,0.068,> 20,–,–,100,0.12,N#CCCN1C(=O)CC[C@H]1C(=O)N1CC[C@@]2(S(=O)(=O)c3ccc(F)cc3)c3cnc(C(F)(C(F)(F)F)C(F)(F)F)cc3CC[C@@H]12
0.067,8.1,> 20,82,> 20,0.0084,0.022,16,2.2,9.5,100,–,O=C(N[C@@H]1CC[C@@]2(S(=O)(=O)c3ccc(F)cc3)c3ccc(C(F)(C(F)(F)F)C(F)(F)F)nc3CC[C@@H]12)C1CCS(=O)(=O)CC1
–,–,–,96,–,0.071,–,–,–,–,100,–,O=C(C1CCS(=O)(=O)CC1)N1CC[C@@]2(S(=O)(=O)c3ccc(F)cc3)c3ncc(C(F)(C(F)(F)F)C(F)(F)F)cc3CC[C@@H]12
0.067,18,> 20,100,> 20,0.0039,0.023,8.3,0.5,3.2,100,–,CC(C)(O)C(=O)N[C@@H]1CC[C@@]2(S(=O)(=O)c3ccc(F)cc3)c3ccc(C(F)(C(F)(F)F)C(F)(F)F)nc3CC[C@@H]12
–,15,7.7,86,11,–,0.006,12,–,12,97,0.002,CC(C)(O)CC(=O)N[C@@H]1CC[C@@]2(S(=O)(=O)c3ccc(F)cc3)c3ccc(C(F)(C(F)(F)F)C(F)(F)F)cc3CC[C@@H]12
0.023,–,–,49,–,0.017,–,–,–,–,92,–,O=C(C1CCS(=O)(=O)CC1)N1CC[C@@]2(S(=O)(=O)c3ccc(F)cc3)c3cnc(C(F)(C(F)(F)F)C(F)(F)F)cc3CC[C@@H]12
0.039,6.4,15,84,> 20,0.0025,0.004,5,0.5,12,98,–,C[C@@](O)(CS(C)(=O)=O)C(=O)N[C@@H]1CC[C@@]2(S(=O)(=O)c3ccc(F)cc3)c3ccc(C(F)(C(F)(F)F)C(F)(F)F)cc3CC[C@@H]12
